According to publication PMC6039432, “A small-molecule inhibitor of SOD1-Derlin-1 interaction ameliorates pathology in an ALS mouse model” (Nature Communications, 2018):

Tests used:
[1] = biological target: T1, SOD1 (GST-SOD1 / Flag-SOD1; WT or G93A) (Homo sapiens, UniProt P00441, G94A); assay: fluorescence polarization (intrinsic fluorescence of compound); type: binding
T1 construct: full length; GST fusion from pGEX-6P-1 in E. coli BL21, eluted with glutathione (tag apparently kept), loaded with CuSO4 and ZnCl2 (described for activity assay); Flag-tagged in HEK293A for pull-down

[2] = biological target: T2, SOD1-Derlin-1 complex (Flag-SOD1 / Derlin-1-HA) (Homo sapiens, UniProt P00441, G94A); assay: in vitro co-immunoprecipitation of purified complex, immunoblot; type: biochemical
T2 construct: Flag-SOD1 G93A and Derlin-1-HA co-expressed in HEK293A; complex purified on anti-Flag beads for the in vitro assay, or assayed in cells; all tags kept; with Derlin-1
T2 sequence (P00441 2-154 G94A): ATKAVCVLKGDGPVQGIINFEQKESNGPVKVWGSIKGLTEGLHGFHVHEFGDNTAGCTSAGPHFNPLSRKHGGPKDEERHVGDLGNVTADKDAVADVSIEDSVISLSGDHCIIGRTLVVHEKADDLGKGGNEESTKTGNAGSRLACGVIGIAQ
T2 sequence (Q9BUN8 2-251 partner): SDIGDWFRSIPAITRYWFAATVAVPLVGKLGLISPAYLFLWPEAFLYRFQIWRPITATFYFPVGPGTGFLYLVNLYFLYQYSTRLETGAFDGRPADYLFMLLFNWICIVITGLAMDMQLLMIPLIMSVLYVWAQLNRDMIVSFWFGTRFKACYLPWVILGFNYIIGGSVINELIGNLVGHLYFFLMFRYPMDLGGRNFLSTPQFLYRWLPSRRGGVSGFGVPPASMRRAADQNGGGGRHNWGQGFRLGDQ

T1 sequence (P00441 2-154 G94A): as the sequence (P00441 2-154 G94A) above

Row | SMILES | Kd [1] [µM] | IC50 [2] [µM]
1 | Nc1c(C(=O)Nc2ccc(Br)cc2Br)sc2nc(-c3cccnc3)ccc12 [#56-20] | 81.1 | 7.11
2 | Nc1c(C(=O)Nc2ccc(Cl)cc2Cl)sc2nc(-c3cccnc3)ccc12 [#56-26] | – | 6.2
3 | Nc1c(C(=O)Nc2ccc3c(c2)OCO3)sc2nc(-c3cccnc3)ccc12 [#56] | – | 23.3
